Measured values reported in US5049685A, “Nuclear substituted salicylic acids and their salts” (Sanko Kaihatsu Kagaku Kenkyusho, priority 1988, dated 1991).

Assays:
[1] = Solubility in toluene (four-stage evaluation); type: physicochemical
[2] = Solubility in water (four-stage evaluation); type: physicochemical

SMILES	Solubility in Toluene [1]	solubility [2] [mg/mL]	Solubility in Water [2]
Cc1c(C(C)(C)C)cc(C(C)(C)C)c(O)c1C(=O)O [1 Free Acid]	.largecircle. (solubility =not less than 20% to less than 50%)	–	–
Cc1c(C(C)(C)c2ccccc2)cc(C(C)C)c(O)c1C(=O)O [12-2 Sodium]	–	> 500	–
Cc1c(C(C)(C)c2ccccc2)cc(C(C)(C)C)c(O)c1C(=O)O [2-2 Sodium]	–	> 500	–
CCC(C)(C)c1cc(C(C)(C)CC)c(O)c(C(=O)O)c1C [3-2 Free Acid]	.largecircle. (solubility =not less than 20% to less than 50%)	–	–
Cc1c(C(C)(C)c2ccccc2)cc(C(C)(C)C)c(O)c1C(=O)O [2-2 Morpholine]	.largecircle. (solubility =not less than 20% to less than 50%)	–	.circleincircle. (solubility =not less than 50%)
Cc1c(C(C)(C)c2ccccc2)cc(C(C)(C)C)c(O)c1C(=O)O [2-2 Free Acid]	.circleincircle. (solubility =not less than 50%)	–	–
Cc1c(C(C)(C)c2ccccc2)cc(C(C)C)c(O)c1C(=O)O [12-2 Free Acid]	.circleincircle. (solubility =not less than 50%)	–	–
CCC(C)(C)c1cc(C(C)(C)CC)c(O)c(C(=O)O)c1C [3-2 Sodium]	–	> 500	–
Cc1c(C(C)(C)C)cc(C(C)(C)CC(C)(C)C)c(O)c1C(=O)O [4-3 Morpholine]	.largecircle. (solubility =not less than 20% to less than 50%)	–	.circleincircle. (solubility =not less than 50%)
Cc1cc(C(C)(C)c2ccccc2)c(C)c(C(=O)O)c1O [11-2 Sodium]	–	> 500	–
Cc1cc(C(C)(C)c2ccccc2)c(C)c(C(=O)O)c1O [11-2 Free Acid]	.largecircle. (solubility =not less than 20% to less than 50%)	–	–
Cc1c(C(C)(C)C)cc(C(C)(C)C)c(O)c1C(=O)O [1 Sodium]	–	> 500	–
Cc1cc(C(C)(C)c2ccccc2)cc(C(=O)O)c1O [(2) Free Acid, 3-methyl-5-(α,α-dimethyllbenzyl)salicylic acid, reference compound]	Δ (solubility =not less than 5% to less than 20%)	–	–
Cc1c(C(C)(C)C)cc(C(C)(C)c2ccccc2)c(O)c1C(=O)O [5-3 Morpholine]	.largecircle. (solubility =not less than 20% to less than 50%)	–	.circleincircle. (solubility =not less than 50%)
C1COCCN1 [1 Morpholine]	.largecircle. (solubility =not less than 20% to less than 50%)	> 500	–
Cc1c(C(C)(C)C)cc(C(C)(C)c2ccccc2)c(O)c1C(=O)O [5-3 Free Acid]	.circleincircle. (solubility =not less than 50%)	–	–
Cc1c(C(C)(C)C)cc(C(C)(C)CC(C)(C)C)c(O)c1C(=O)O [4-3 Free Acid]	.circleincircle. (solubility =not less than 50%)	–	–
Cc1cc(C(C)(C)c2ccccc2)cc(C(=O)O)c1O [(2) Sodium, 3-methyl-5-(α, α-dimethylbenzyl)salicylic acid, reference compound]	–	200 to 500	–
Cc1c(C(C)(C)C)cc(C(C)(C)c2ccccc2)c(O)c1C(=O)O [5-3 Sodium]	–	> 500	–
Cc1c(C(C)(C)C)cc(C(C)(C)CC(C)(C)C)c(O)c1C(=O)O [4-3 Sodium]	–	> 500	–
